This passage reports inhibition results from US20260184663A1, “INDENE COMPOUNDS, PHARMACEUTICAL COMPOSITIONS THEREOF, AND THEIR THERAPEUTIC APPLICATIONS” (NucMito Pharmaceuticals co. Ltd., priority 2022, published 2026).

Type in all cases: cell-based
The test system of one assay is HepG2 (liver cancer). Briefly: Antiproliferative activity (CCK-8 cell viability), HepG2. The note with it: Homo sapiens, 72 h, read-out: Antiproliferative activity in cancerous cells, HepG2 (inhibition of cell growth); for inhibition at 3.3 µM: Compound concentration: 3.3 μM; for inhibition at 10 µM: Compound concentration: 10 μM. An outline of the steps:
(§1)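 Cells were seeded at 2,000-5,000/well (HeLa in MEM, HepG2 and SW480 in DMEM, A549 in F-12K, all with 10% FBS) and treated with compound at 3.3, 10 or 30 μM for 72 h at 37° C. CCK-8 was added for 4 h, absorbance was read at 450 nm, and viability was expressed relative to DMSO-treated wells.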

Assay [1] concerns B16F10 (malignant melanoma). Briefly: Antiproliferative activity (CCK-8 cell viability), B16F10. As to conditions: Mus musculus, 72 h; for inhibition at 3.3 µM: B16-F10, Compound concentration: 3.3 μM; for inhibition at 3.3 µM / inhibition at 10 µM: read-out: Antiproliferative activity in cancerous cells, B16F10 (inhibition of cell growth); for inhibition at 10 µM: B16-F10, Compound concentration: 10 μM. The gist of the method:
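Attached B16F10 cells in 96-well plates were incubated with compound at 37° C for 72 h, followed by 10 μL CCK-8 reagent per well and a further 4 h incubation. A multi-well plate reader measured absorbance at 450 nm. Percent viability across replicates was calculated against DMSO vehicle-treated cells.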

For assay [2], the system named is A431 (epidermoid carcinoma). Briefly: Antiproliferative activity (CCK-8 cell viability), A431. As to conditions: Homo sapiens, 72 h; for inhibition at 3.3 µM: A-431, Compound concentration: 3.3 μM; for inhibition at 3.3 µM / inhibition at 10 µM: read-out: Antiproliferative activity in cancerous cells, A431 (inhibition of cell growth); for inhibition at 10 µM: A-431, Compound concentration: 10 μM. The gist of the method:
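Cell viability of compound-treated A431 cells was measured with a Cell Counting Kit-8. Each well received 10 μL of CCK-8 after 72 h of compound exposure, followed by 4 h incubation at 37° C. and a 450 nm plate-reader measurement. Percent viability was calculated relative to DMSO controls across replicates.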

Assay [3] concerns A549 (lung adenocarcinoma). In words: Antiproliferative activity (CCK-8 cell viability), A549. As to conditions: Homo sapiens, 72 h; for inhibition at 3.3 µM: Compound concentration: 3.3 μM; for inhibition at 3.3 µM / inhibition at 10 µM: read-out: Antiproliferative activity in cancerous cells, A549 (inhibition of cell growth); for inhibition at 10 µM: Compound concentration: 10 μM; for inhibition at 30 µM: Compound concentration: 30 μM, read-out: Antiproliferative activity in cancerous cells, A549. An outline of the steps: as §1

For another assay, the system named is SW480 (colon cancer). Briefly: Antiproliferative activity (CCK-8 cell viability), SW480. As to conditions: Homo sapiens, 72 h; for inhibition at 3.3 µM: Compound concentration: 3.3 μM; for inhibition at 3.3 µM / inhibition at 10 µM: read-out: Antiproliferative activity in cancerous cells, SW480 (inhibition of cell growth); for inhibition at 10 µM: Compound concentration: 10 μM. The gist of the method:
as §1

The subject of a further assay is HeLa (cervical cancer). In words: Antiproliferative activity (CCK-8 cell viability), HeLa. As to conditions: Homo sapiens, 72 h, read-out: Antiproliferative activity in cancerous cells, HELA (inhibition of cell growth); for inhibition at 3.3 µM: Compound concentration: 3.3 μM; for inhibition at 10 µM: Compound concentration: 10 μM. The gist of the method:
as §1

In assay [4] the test system is alpha-smooth muscle actin (α-SMA). Briefly: Inhibition of TGF-β induced expression of alpha-smooth muscle actin (α-SMA) in CFSC cells (western blot). The note with it: compound at 10 μM, TGF-β (10 ng/mL), 24 hours, band intensity vs TGF-β only. The gist of the method:
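Values are percent reduction of α-SMA band intensity relative to cells given TGF-β alone, quantified by Western blot densitometry with β-actin probed. Compound was applied at 10 μM alongside 10 ng/mL TGF-β to serum-free CFSC cultures for 24 h at 37 °C.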
(In general: Immunoblotting shows a protein as a band on a membrane.)

The subject of assay [5] is MDA-MB-231 (breast cancer). Briefly: Antiproliferative activity (CCK-8 cell viability), MDA-MB-231. The note with it: Homo sapiens, 72 h, read-out: Antiproliferative activity in cancerous cells, MDA-MB-231 (inhibition of cell growth); for inhibition at 3.3 µM: Compound concentration: 3.3 μM; for inhibition at 10 µM: Compound concentration: 10 μM. The gist of the method:
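In this CCK-8 viability assay, MDA-MB-231 cells maintained in Dulbecco's modified Eagle's medium containing 10% fetal bovine serum were placed in 96-well plates (2,000-5,000 cells/well) and treated with compound for 72 h at 37° C. A 4 h incubation with 10 μL CCK-8 followed, plates were read at 450 nm, and viability was expressed against DMSO vehicle wells across replicates.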

The structures appear in SMILES notation.

For the molecule `O=C(O)CC1=C(Cc2ccc(Oc3ccc(F)cc3)cc2)/C(=C/c2ccc(F)cc2)c2ccc(F)cc21` [A105, (Z)-2-(5-Fluoro-1-(4-fluorobenzylidene)-2-(4-(4-fluorophenoxy)benzyl)-1H-inden-3-yl)acetic acid], the inhibition at 3.3 µM (in the assay with HepG2 (liver cancer); in assay [1]; in assay [2]; in assay [3]; in the assay on SW480 (colon cancer); with HeLa (cervical cancer)) was at least 50% throughout. For the same molecule, the inhibition at 3.3 µM in assay [5] is at least 50%. The inhibition at 10 µM (in the assay on HepG2 (liver cancer); in assay [1]; in assay [2]; in assay [3]; in the assay on SW480 (colon cancer); in the assay on HeLa (cervical cancer)) was at least 50% in each case. Besides, the inhibition at 10 µM in assay [4] is above 80%; in assay [5], at least 50%.
In the case of `O=C(O)CC1=C(C2CCc3ccc(F)cc32)/C(=C/c2ccc(Oc3ccc(F)cc3)cc2)c2ccc(F)cc21` (centres unmarked) [C12, (Z)-2-(5′,6-Difluoro-1′-(4-(4-fluorophenoxy)benzylidene)-2,3-dihydro-1H,1′H-[1,2′-biinden]-3′-yl)acetic acid], the inhibition at 3.3 µM (with HepG2 (liver cancer); in assay [1]; in assay [2]; in assay [3]; with SW480 (colon cancer); with HeLa (cervical cancer)) was at least 50% each time. The inhibition at 3.3 µM in assay [5] is at least 50%. Further, the inhibition at 10 µM (in the assay with HepG2 (liver cancer); in assay [1]; in assay [2]; in assay [3]; with SW480 (colon cancer); in the assay with HeLa (cervical cancer)) was at least 50% in each case. Further, the inhibition at 10 µM was above 80% in assay [4] and at least 50% in assay [5].
Consider `O=C(O)CC1=C(Cc2ccccc2)/C(=C/c2ccc(COc3ccccc3)cc2)c2ccc(F)cc21` [A1, (Z)-2-(2-Benzyl-5-fluoro-1-(4-(phenoxymethyl)benzylidene)-1H-inden-3-yl)-acetic acid], for which the inhibition at 3.3 µM is 30 to 50% with HepG2 (liver cancer); 30 to 50% in assay [1]; 30 to 50% in assay [2]; below 30% in assay [3]; at least 50% with SW480 (colon cancer); at least 50% with HeLa (cervical cancer). For the same molecule, the inhibition at 3.3 µM in assay [5] is at least 50%. Besides, the inhibition at 10 µM with HepG2 (liver cancer) is at least 50%; in assay [1] it was at least 50%; in assay [2], at least 50%; in assay [3], 30 to 50%; in the assay with SW480 (colon cancer) it was at least 50%; in the assay with HeLa (cervical cancer) it was at least 50%. Besides, the inhibition at 10 µM is above 80% in assay [4] and at least 50% in assay [5].
`CC1=C(CC(=O)O)c2cc(C)ccc2/C1=C\c1ccc(Oc2ccc(F)cc2)cc1` [C4, (Z)-2-(1-(4-(4-Fluorophenoxy)benzylidene)-2,5-dimethyl-1H-inden-3-yl)acetic acid]: the inhibition at 3.3 µM in the assay on HepG2 (liver cancer) was 30 to 50%; in assay [1], below 30%; in assay [2] it was below 30%; in assay [3], below 30%; with SW480 (colon cancer), below 30%; in the assay with HeLa (cervical cancer), below 30%. For the same molecule, the inhibition at 3.3 µM in assay [5] is below 30%. Moreover, the inhibition at 10 µM in the assay on HepG2 (liver cancer) is at least 50%; in assay [1], below 30%; in assay [2], 30 to 50%; in assay [3] it was 30 to 50%; in the assay on SW480 (colon cancer), below 30%; in the assay with HeLa (cervical cancer), at least 50%. Besides, the inhibition at 10 µM is above 80% in assay [4] and 30 to 50% in assay [5]. In addition, in the assay with SW480 (colon cancer) (Compound concentration: 30 μM, read-out: Antiproliferative activity in cancerous cells, SW480), the inhibition at 30 µM was in the range of 30 to 50%.
Turning to `CC1=C(CC(=O)O)c2cccc(F)c2/C1=C\c1cccc(COc2ccccc2)c1` [B9, (Z)-2-(7-Fluoro-2-methyl-1-(3-(phenoxymethyl)benzylidene)-1H-inden-3-yl)-acetic acid], the inhibition at 3.3 µM is below 30% in the assay on HepG2 (liver cancer); below 30% in assay [1]; below 30% in assay [2]; 30 to 50% in assay [3]; below 30% with SW480 (colon cancer); below 30% in the assay on HeLa (cervical cancer). The inhibition at 3.3 µM in assay [5] was in the range of 30 to 50%. The inhibition at 10 µM was below 30% in the assay on HepG2 (liver cancer); at least 50% in assay [1]; below 30% in assay [2]; 30 to 50% in assay [3]; below 30% with SW480 (colon cancer); 30 to 50% with HeLa (cervical cancer). Besides, the inhibition at 10 µM in assay [4] was in the range of 50 to 80%; in assay [5] it was 30 to 50%. The inhibition at 30 µM in assay [3] lay within 30 to 50%.
With `CC1=C(CC(=O)O)c2cc(F)ccc2/C1=C\c1ccc(CN(Cc2ccccn2)c2ccccc2)cc1` [B16, (Z)-2-(5-Fluoro-2-methyl-1-(4-((phenyl(pyridin-2-ylmethyl)amino)methyl)-benzylidene)-1H-inden-3-yl)acetic acid], the inhibition at 3.3 µM in the assay with HepG2 (liver cancer) was below 30%; in assay [1], 30 to 50%; in assay [2], below 30%; in assay [3], at least 50%; with SW480 (colon cancer) it was below 30%; with HeLa (cervical cancer), 30 to 50%. For the same molecule, the inhibition at 3.3 µM in assay [5] is at least 50%. Moreover, the inhibition at 10 µM in the assay with HepG2 (liver cancer) is at least 50%; in assay [1] it was at least 50%; in assay [2], at least 50%; in assay [3] it was at least 50%; in the assay with SW480 (colon cancer), below 30%; in the assay on HeLa (cervical cancer), at least 50%. The inhibition at 10 µM is above 80% in assay [4] and at least 50% in assay [5].
As to `COc1ccc2c(c1)C(CC(=O)O)=C(C)/C2=C/c1cccc(COc2ccccc2)c1` [B20, (Z)-2-(5-Methoxy-2-methyl-1-(3-(phenoxymethyl)benzylidene)-1H-inden-3-yl)-acetic acid], the inhibition at 3.3 µM with HepG2 (liver cancer) was below 30%; in assay [1] it was below 30%; in assay [2] it was below 30%; in assay [3], below 30%; with SW480 (colon cancer), 30 to 50%; with HeLa (cervical cancer), below 30%. Further, in assay [5], the inhibition at 3.3 µM is 30 to 50%. Moreover, the inhibition at 10 µM was below 30% in the assay with HepG2 (liver cancer); below 30% in assay [1]; below 30% in assay [2]; below 30% in assay [3]; 30 to 50% in the assay on SW480 (colon cancer); 30 to 50% with HeLa (cervical cancer). The inhibition at 10 µM in assay [4] was above 80%; in assay [5] it was 30 to 50%. The inhibition at 30 µM in assay [1] (B16-F10, Compound concentration: 30 μM, read-out: Antiproliferative activity in cancerous cells, B16F10) was below 30%; in assay [2] (A-431, Compound concentration: 30 μM, read-out: Antiproliferative activity in cancerous cells, A431) it was below 30%; in assay [3], below 30%.
